Consider three molecules from patent US20080132446A1, “Uses of neuronal pannexins for therapy and diagnosis in mammals” (INSTITUT PASTEUR, priority 2003, published 2008).

Common to all, as to type: cell-based
One assay concerns the target T1, Px1 hemi-channels (Rattus norvegicus, UniProt P60570).
T1 construct: expressed in transfected cells; host or cells: Xenopus laevis oocytes injected with in vitro transcribed RNA (pBSxG vector) plus antisense to endogenous Cx38
In words: Px1 hemi-channel currents in single Xenopus oocytes (two-electrode voltage-clamp). On the procedure:
For physiological analysis, cells were injected with a total volume of 40 nl of either an antisense oligonucleotide (3 ng/cell) to suppress the endogenous Xenopus Cx38 (30), or a mixture of antisense plus the specified RNA (20-80 ng/cell). The ability of pannexins to form hemi-channels was assessed in single oocytes 2-4 days after RNA injection, using a two-electrode voltage-clamp.
Whole-cell membrane currents (Im) were measured from single oocytes co-injected with pannexin RNAs and an oligonucleotide antisense to Xenopus Cx38 (FIG. 3A). Cells were initially clamped at a membrane potential (Vm) of −40 mV and depolarizing steps lasting 2 sec were applied in 10 mV increments up to +60 mV (bottom traces).
(§1) Stage V-VI cells were individually selected under a dissecting microscope and cultured thereafter in control medium at 18° C. For physiological analysis, all cells were injected with a total volume of 40 nl of either an antisense oligonucleotide (3 ng/cell) to suppress the endogenous Xenopus Cx38 (30; 51), or a mixture of antisense (as above) plus the specified pannexin or connexin RNA. The following amounts of RNAs were injected: 40-80 ng/cell for Px1 and Px2 RNAs, either separately or co-injected at a 1:1 ratio; 4 ng/cell for Cx46; 10-20 ng/cell for Cx52.6. For analysis of Cx46 hemi-channels, the extracellular Ca^2+ concentration was raised to 2.9 mM to prevent the lysis of the injected oocytes that occurs in control medium, which contains 0.9 mM Ca^2+ (53). To characterize hemi-channel activity, current recordings were performed in single oocytes 24-96 hr after RNA injection, using a two-electrode voltage-clamp procedure.
(§2) The setup, hardware and software used for electrophysiological measurements and data analysis were as previously described (54; 49). Cells were clamped at −40 mV, and whole cell currents recorded in response to depolarizing voltage steps (from −20 to +60 mV in 20 mV increments) imposed for 2 sec. Current outputs were filtered at 200 Hz and sampled at 500 Hz.
All experiments were carried out at 18° C. Carbenoxolone (the succinyl ester of glycyrrhetinic acid), β-glycyrrhetinic acid and flufenamic (Sigma-Aldrich) were prepared freshly by dissolving them in either water (in the case of carbenoxolone) or dimethyl sulfoxide (DMSO), whose final concentration never exceeded 0.1%. […] Oocytes were placed on a Teflon tubing in a perfusion chamber and drugs were delivered using an electronically controlled gravity flow perfusion system (ALA Scientific Instruments, Westbury, N.Y.). […] Current-voltage (I-V) relationships were generated by plotting peak current values above holding currents (ΔIm) versus membrane potential. The time constants (τ) of voltage-dependent transitions of hemi-channel currents were calculated using data fitting functions in Origin 6.0 (Microcal Software, Northampton, Mass.). In all experiments, positive controls showing the effect of the tested drugs were routinely included.

Another assay addresses T2, Px1/Px2 hemi-channels (Rattus norvegicus, UniProt P60570+P60571).
T2 construct: expressed in transfected cells; host or cells: Xenopus laevis oocytes co-injected with Px1 and Px2 RNA (1:1) plus antisense to endogenous Cx38
In words: Heteromeric Px1/Px2 hemi-channel currents in single Xenopus oocytes (two-electrode voltage-clamp). Here is the method: as §1, §2
All experiments were carried out at 18° C. Carbenoxolone (the succinyl ester of glycyrrhetinic acid), β-glycyrrhetinic acid and flufenamic (Sigma-Aldrich) were prepared freshly by dissolving them in either water (in the case of carbenoxolone) or dimethyl sulfoxide (DMSO), whose final concentration never exceeded 0.1%. […] Oocytes were placed on a Teflon tubing in a perfusion chamber and drugs were delivered using an electronically controlled gravity flow perfusion system (ALA Scientific Instruments, Westbury, N.Y.). Cells were incubated for 15-30 minutes in the presence of the different drugs and reversibility was recorded after extensive washings in control medium. Current-voltage (I-V) relationships were generated by plotting peak current values above holding currents (ΔIm) versus membrane potential. The time constants (τ) of voltage-dependent transitions of hemi-channel currents were calculated using data fitting functions in Origin 6.0 (Microcal Software, Northampton, Mass.). In all experiments, positive controls showing the effect of the tested drugs were routinely included.
(In general: Two-electrode voltage clamp holds a large cell at a set potential and records current.)

In the next assay the target is T3, Cx46 hemi-channels (Rattus norvegicus, UniProt P29414).
T3 construct: expressed in transfected cells; host or cells: Xenopus laevis oocytes injected with Cx46 RNA (4 ng/cell) plus antisense to endogenous Cx38
In words: Cx46 hemi-channel currents in single Xenopus oocytes (two-electrode voltage-clamp). On the procedure: as §1, §2
All experiments were carried out at 18° C. Carbenoxolone (the succinyl ester of glycyrrhetinic acid), β-glycyrrhetinic acid and flufenamic (Sigma-Aldrich) were prepared freshly by dissolving them in either water (in the case of carbenoxolone) or dimethyl sulfoxide (DMSO), whose final concentration never exceeded 0.1%. […] Cells were incubated for 15-30 minutes in the presence of the different drugs and reversibility was recorded after extensive washings in control medium. […] The time constants (τ) of voltage-dependent transitions of hemi-channel currents were calculated using data fitting functions in Origin 6.0 (Microcal Software, Northampton, Mass.). […]

Several values for one entry are separate records, joined by “and”; a condition that tells them apart may be missing. Equal entries are not always repeated. Entries after “also recorded” stand apart in the source; their conditions may differ.

T1 sequence (P60570 whole entry): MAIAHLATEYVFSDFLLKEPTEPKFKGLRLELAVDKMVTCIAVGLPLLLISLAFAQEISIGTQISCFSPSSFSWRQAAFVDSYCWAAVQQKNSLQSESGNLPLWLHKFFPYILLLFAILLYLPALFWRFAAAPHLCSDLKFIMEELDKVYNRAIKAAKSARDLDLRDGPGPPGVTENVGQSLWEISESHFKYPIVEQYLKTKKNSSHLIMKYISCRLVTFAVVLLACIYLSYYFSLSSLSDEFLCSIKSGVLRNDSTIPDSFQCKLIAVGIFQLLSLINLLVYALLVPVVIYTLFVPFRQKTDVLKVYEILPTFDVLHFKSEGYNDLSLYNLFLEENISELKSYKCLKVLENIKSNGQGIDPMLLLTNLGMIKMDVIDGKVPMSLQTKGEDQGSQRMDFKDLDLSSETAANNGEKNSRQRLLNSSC
T2 sequence (P60570 whole entry): as above
T2 sequence (P60571 11-674): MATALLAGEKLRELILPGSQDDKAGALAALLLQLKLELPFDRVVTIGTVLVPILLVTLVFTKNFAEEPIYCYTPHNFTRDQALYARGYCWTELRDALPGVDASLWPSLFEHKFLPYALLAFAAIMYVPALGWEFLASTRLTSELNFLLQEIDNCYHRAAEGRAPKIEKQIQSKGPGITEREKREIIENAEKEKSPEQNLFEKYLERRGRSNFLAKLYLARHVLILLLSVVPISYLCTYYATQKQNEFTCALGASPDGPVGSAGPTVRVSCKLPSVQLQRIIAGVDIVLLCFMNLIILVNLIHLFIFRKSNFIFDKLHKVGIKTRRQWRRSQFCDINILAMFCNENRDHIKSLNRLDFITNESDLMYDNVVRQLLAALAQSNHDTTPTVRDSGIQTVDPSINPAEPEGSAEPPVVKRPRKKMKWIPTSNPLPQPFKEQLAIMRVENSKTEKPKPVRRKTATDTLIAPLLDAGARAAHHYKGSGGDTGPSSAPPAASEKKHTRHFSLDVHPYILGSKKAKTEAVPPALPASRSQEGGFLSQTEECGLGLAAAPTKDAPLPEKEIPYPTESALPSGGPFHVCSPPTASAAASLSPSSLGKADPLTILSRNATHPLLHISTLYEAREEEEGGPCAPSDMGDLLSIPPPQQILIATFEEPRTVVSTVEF

For the molecule `CC1(C)[C@@H](OC(=O)CCC(=O)O)CC[C@]2(C)[C@H]3C(=O)C=C4[C@@H]5C[C@@](C)(C(=O)O)CC[C@]5(C)CC[C@@]4(C)[C@]3(C)CC[C@@H]12` [carbenoxolone], the “effect on time constant (τ) of Px1 channel closure” value at Px1 hemi-channels (3 μM CBX, +60 mV) was “gated much faster than in control medium”. In addition, the “time constants (τ) of Px1 channel closure, faster than in control medium” value on Px1 hemi-channels (3 μM CBX, depolarized to +60 mV from −40 mV, first order exponential decay fit) was “approximately 10 times”. Also, the “decrease of Px1 hemi-channel currents” value on Px1 hemi-channels (10 μM CBX, 30 min incubation) was 50-60%. Besides, on Px1 hemi-channels (30 μM carbenoxolone, 10-30 min incubation), the “effect on Px1 currents” value is “completely suppressed Px1 currents”. In addition, at Px1 hemi-channels (30 μM carbenoxolone, 10-30 min incubation, control medium 1189±170 nA, n=4), the “peak amplitude of Px1 currents at +60 mV” value was 255±47 nA. Further, the “effect on Px1 hemi-channel currents” value on Px1 hemi-channels (50 μM, 30 min incubation, reversible on washout, listed as CBX) is “robust and reversible decrease; also recorded: strongly blocked”; at Px1 hemi-channels (very low CBX concentrations (<1 μM)), “ineffective”. In addition, at Px1 hemi-channels (concentration dependence of blockade of Px1 hemi-channel currents), the Hill coefficient was ~1. Also, the IC50 on Px1 hemi-channels (normalized peak currents at +60 mV, fit to Hill equation, 3-9 cells, read-out: IC50 of blockade of Px1 hemi-channel currents) was 5 µM and ~5 µM. The “reversibility of inhibition of Px1 hemi-channels” value on Px1 hemi-channels (up to highest dose tested (100 μM), washout and 30 min in control medium) is recorded as “always reversible”. Also, the “decrease of Px1/Px2 hemi-channel currents” value at Px1/Px2 hemi-channels (10 μM CBX, 30 min incubation) is given as 50-60%. Moreover, the “current amplitude at the +60 mV depolarization step” value at Px1/Px2 hemi-channels (10 μM CBX, control medium 612±50 nA, n=6 cells) worked out at 266±24 nA. Besides, the “current amplitude at the +60 mV depolarization step after reversibility period” value on Px1/Px2 hemi-channels (after 10 μM CBX, washout and 30 min in control medium, n=6 cells) is 541±70 nA. The “effect on I-V relationship of Cx46-expressing oocytes” value on Cx46 hemi-channels (10 μM CBX, 30 min incubation) is on record as “virtually identical to that measured in control medium”.
As to `CC1(C)[C@@H](O)CC[C@]2(C)[C@H]3C(=O)C=C4[C@H]5C[C@@](C)(C(=O)O)CC[C@]5(C)CC[C@@]4(C)[C@]3(C)CC[C@@H]12` [βGA, β-glycyrrhetinic acid], the “effect on Px1 hemi-channel currents” value on Px1 hemi-channels (50 μM, 30 min incubation, reversible on washout) was “robust and reversible decrease; also recorded: strongly blocked”.
As for `O=C(O)c1ccccc1Nc1cccc(C(F)(F)F)c1` [flufenamic acid], the “inhibition of Px1 currents” value against Px1 hemi-channels (30 μM FFA, 30 min, at the more positive potentials) is given as 10-15%. Besides, on Px1 hemi-channels (300 μM FFA, +60 mV, listed as FFA), the “effect on time constant (τ) of Px1 channel closure” value is “did not affect the time constant of channel closure; also recorded: did not show any appreciable change”. In addition, the “extent of Px1 channel blockade” value at Px1 hemi-channels (highest FFA concentration used (300 μM), +60 mV) is ≤ 33%. Besides, the “effect on Px1 hemi-channels” value on Px1 hemi-channels (increasing FFA concentrations up to 300 μM, 30 min, listed as FFA) is on record as “moderate inhibition of Px1 currents; also recorded: modest inhibition of Px1 hemi-channels only at the highest dose”. Also, on Px1 hemi-channels (summary statement), the “inhibitory effect on pannexins” value was “only a modest inhibitory effect”. Moreover, the “inhibition of Px1/Px2 current amplitudes at +60 mV” value against Px1/Px2 hemi-channels (30 μM FFA, n=12) is listed as “about 15%”. The “Px1/Px2 current amplitude at +60 mV” value on Px1/Px2 hemi-channels (30 μM FFA, 603±123 nA in MB, n=12) is recorded as 504±101 nA; on Px1/Px2 hemi-channels (300 μM FFA, 609±135 nA before, n=11), 448±104 nA. The inhibition at 300 µM on Px1/Px2 hemi-channels (highest FFA concentration (300 μM), n=11, read-out: inhibition of Px1/Px2 current amplitudes at +60 mV) is 27%. Besides, the “effect on Cx46 hemi-channels” value at Cx46 hemi-channels (30 μM FFA, 30 min application, starting with the 0 mV depolarization step) is “strong (P<0.005) and fully reversible inhibition”. At Cx46 hemi-channels (increasing FFA concentrations, 300 μM FFA, 30 min, listed as FFA), the “effect on Cx46 hemi-channel currents” value is recorded as “virtually suppressed Cx46 hemi-channels; also recorded: almost complete blockade”.

As usually defined, the Hill coefficient is a measure of the steepness of the concentration-response curve. In general, IC50 refers to the point on the concentration scale where inhibition reaches its midpoint.
